Reference: patent US20220133753A1, “COMPOSITIONS AND METHODS USEFUL FOR TREATING DISEASES CHARACTERIZED BY INSUFFICIENT PANTOTHENATE KINASE ACTIVITY” (Comet Therapeutics, Inc., priority 2016, published 2022)
Entries after “also recorded” stand apart in the source; their conditions may differ.

What was measured:
[1] = system: Drosophila w1118 control fly line; experiment: Drosophila HoPan toxicity and CoA rescue experiment (eclosion); type: in vivo; conditions: CoA added to the food of the larvae
Description: Drosophila HoPan Toxicity and CoA Rescue Experiment: One week old w1118 flies (in the ratio 10 females and 5 males) were kept in vials containing standard fly food with or without HoPan and CoA at indicated concentrations. The flies were allowed to lay eggs for 2 days, after which the adults were discarded. The resulting offspring were allowed to develop. The numbers of flies which eclosed were counted to evaluate HoPan toxicity and CoA rescue efficiency.

[2] = system: homozygous dPPCDC mutants and dPPCDC RNAi expressing flies; experiment: Drosophila dPPCDC mutant and dPPCDC RNAi flies, development, lifespan and fertility with CoA or Vitamin B5; type: in vivo, Drosophila melanogaster
Method: Drosophila Maintenance and Crosses: Drosophila melanogaster stocks/crosses were raised on standard cornmeal agar fly food (containing water, agar 17 g/L, sugar 54 g/L, yeast extract 26 g/L and nipagin 1.3 g/L) at 25° C. The stocks were either obtained from the Bloomington Stock Centre (Indiana University, USA), VDRC (Vienna Drosophila RNAi Collection, Vienna, Austria) or from the Exelixis Collection (Harvard Medical School) and rebalanced to generate eGFP-positive balancers. The stocks used were: w1118; dPANK/fbl1 hypomorph5,6; dPANK/fblnull (y[1] w[*]; Mi{y[+mDint2]=MIC}fbl[MI04001]/TM3, Sb[1] Ser[1], Bloomington 36941); dPPCDC mutant (w[1118], PBac{w[+mC]=WH}Ppcdc[f00839]/CyO, Bloomington 18377); UAS-dPPCDCRNAi line (VDRC 104495); dCOASY mutant (PBac{RB}Ppat-Dpck[e00492], Exelixis). The UAS-RNAi constructs were expressed ubiquitously using the Actin-Gal4 drivers (y[1] w[*]; P{w[+mC]=Act5C-GAL4}25FO1/CyO, y[+], Bloomington 4414). […]
Drosophila Life Span: One-day old adults of Drosophila homozygous mutants or RNAi-constructs expressing lines, were collected with appropriate controls and were kept on standard fly food at 25° C. with or without CoA or Vitamin B5 (Sigma) at necessary concentration (50 ul added on top of the fly food and dried). The flies were counted every 12-24 hrs and flipped to new fly food vials with or without CoA or Vitamin B5.
Drosophila Ovary Rescue Experiment: UAS-dPPCDC RNAi constructs were ubiquitously expressed under the control of Actin-Gal4. […] The vials (or plates) from the crosses (with eggs that were being laid during the 4 day period of CoA rescue) were kept for another 10 days and offspring numbers were counted after eclosion.
Drosophila Ovary dissection and staining: Drosophila ovaries were collected in cold PBS and fixed in 4% formaldehyde (from methanol-free 16% Formaldehyde Solution, Thermo Scientific) for 45 min at RT. […] Finally the samples were mounted in 80% glycerol and analyzed on a Zeiss-LSM780 NLO confocal microscope with Zeiss Zen software. […]

[3] = Conversion of CoA in human serum by HPLC; type: in vitro ADME
Description: The conversion of CoA to 4′-phosphopantetheine was further investigated in mouse serum and in human serum.

CC(C)(COP(=O)(O)OP(=O)(O)OC[C@H]1O[C@@H](n2cnc3c(N)ncnc32)[C@H](O)[C@@H]1OP(=O)(O)O)[C@@H](O)C(=O)NCCC(=O)NCCS [CoA, Coenzyme A]
rescue of HoPan-induced phenotype (larval lethality, eclosion rate) [1]: fully rescued
egg production and fertility of females ([2]; dPPCDC RNAi expressing females): improved egg-production significantly; also recorded: produced a significant number of eggs; also recorded: produced viable eggs that resulted in offspring
lifespan with CoA ([2]; dPPCDC RNAi expressing flies, CoA added to the food, from 10 days without): 30 days
development with CoA ([2]; homozygous dPPCDC mutants, CoA added to the food): extended larval development to late pupal stage
conversion of CoA in serum [3]: converted to 4′-phosphopantetheine
